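Results reflect a 48-hour exposure of cells in 96-well plates to compound at five concentrations. At the GI50, growth is halved.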 Active and inactive are the calls of the source. Cut-off read from the data, not from the text of the source: active = GI50 up to about 1.1 µM and inactive = higher.
Experiments:
Test in all cases: NCI tumour cell line growth inhibition, 48 h
[1] = tested on: OVCAR-4
[2] = tested on: HCT-116
[3] = tested on: Malme-3M
[4] = tested on: MOLT-4
[5] = tested on: CCRF-CEM
[6] = tested on: TK-10
[7] = tested on: KM12
[8] = tested on: BT-549
[9] = tested on: SF-295
[10] = tested on: 786-0
[11] = tested on: LOX IMVI
[12] = tested on: SK-OV-3
[13] = tested on: K562
[14] = tested on: NCI/ADR-RES
[15] = tested on: A549
[16] = tested on: M14
[17] = tested on: MDA-N
[18] = tested on: COLO 205
[19] = tested on: RXF 393

Measured: GI50

CC(=O)O/C=C\OC1CCCC1(c1ccccc1)c1ccccc1 (stereo not given)
inactive: [1] 2.1 µM | [2] 1.98 µM | [3] 2.18 µM | [4] 2.79 µM | [5] 2.37 µM | [6] 3.48 µM | [7] 3.49 µM | [8] 1.95 µM | [9] 8.11 µM | [10] 3.21 µM | [11] 1.63 µM | [12] 14.4 µM | [13] 2.16 µM | [14] 2.84 µM | [15] 20.4 µM | [16] 2.47 µM | [17] 2.31 µM | [18] 4.08 µM | [19] 2.3 µM

CC(C)=CCC[C@H](C)[C@H]1CC[C@@H](C)c2cc(O)c(C)cc21
inactive: [1] 15.5 µM | [2] 18.4 µM | [3] 18.6 µM | [4] 21.4 µM | [5] 22.9 µM | [6] 18.4 µM | [7] 17.3 µM | [8] 17.9 µM | [9] 16.9 µM | [10] 18.6 µM | [11] 16.3 µM | [12] 19.1 µM | [13] 20.1 µM | [14] 19.5 µM | [15] 17.1 µM | [16] 18.4 µM | [17] 17.4 µM | [18] 18.3 µM | [19] 20.7 µM

Cc1cccc2c(N)c3cccc(C(=O)NCC[N+]4(Cc5ccc([N+](=O)[O-])cc5)CCOCC4)c3nc12
inactive: [1] 61.9 µM | [2] 16.1 µM | [3] 29.4 µM | [4] 13.5 µM | [5] 26.1 µM | [6] > 79.1 µM | [7] 37.8 µM | [8] 47.5 µM | [9] 27.5 µM | [10] 12.8 µM | [11] 39.9 µM | [12] > 100 µM | [13] 16 µM | [14] > 95.1 µM | [15] 31.5 µM | [16] 71.8 µM | [17] 59.6 µM | [18] 45.9 µM | [19] 62.2 µM

Cc1cc(C)c([S@@](=O)O[C@@H]2[C@H]3OC(C)(C)O[C@H]3O[C@@H]2[C@H]2COC(C)(C)O2)c(C)c1
inactive: [1] 16.5 µM | [2] 24.8 µM | [3] 25.5 µM | [4] 17 µM | [5] 25.2 µM | [6] 25.5 µM | [7] 18.2 µM | [8] 15.1 µM | [9] 29 µM | [10] 26.9 µM | [11] 14 µM | [12] 36.6 µM | [13] 25.9 µM | [14] 22 µM | [15] 29.4 µM | [16] 25.6 µM | [17] 26.6 µM | [18] 16.3 µM | [19] 19.3 µM

N#Cc1cnc(N)nc1NCC1(CO)CC(CCc2ccccc2)C1 (stereo not given)
inactive: [1] > 100 µM | [2] 12 µM | [3] > 100 µM | [4] 3.15 µM | [5] > 100 µM | [6] > 61.5 µM | [7] > 85.5 µM | [8] > 100 µM | [9] 18.5 µM | [10] > 85.5 µM | [11] 5.26 µM | [12] 27.1 µM | [13] 2.51 µM | [14] 9.95 µM | [15] 14.3 µM | [16] > 100 µM | [17] 29.9 µM | [18] > 100 µM | [19] 49 µM

O=c1c2ccccc2nc2n1NC(c1c(Cl)cccc1Cl)N2c1cccc(Cl)c1 (stereo not given)
inactive: [1] 2.65 µM | [2] 3.27 µM | [3] 8.99 µM | [4] > 100 µM | [5] > 100 µM | [6] 7.69 µM | [7] 7.24 µM | [8] 51.4 µM | [9] 9.33 µM | [10] 2.1 µM | [11] 6.79 µM | [12] 2.26 µM | [13] 54.2 µM | [14] 6.44 µM | [15] 5.2 µM | [16] 7.24 µM | [17] 5.22 µM | [18] 8.53 µM | [19] 4.78 µM

O=C(O)c1ccccc1CC1Cc2ccccc2C1=O (stereo not given)
inactive: [1] > 100 µM | [2] > 100 µM | [3] > 100 µM | [4] > 100 µM | [5] > 100 µM | [6] > 100 µM | [7] > 100 µM | [8] > 100 µM | [9] > 100 µM | [10] > 100 µM | [11] > 100 µM | [12] > 100 µM | [13] > 100 µM | [14] > 100 µM | [15] > 100 µM | [16] > 100 µM | [17] > 100 µM | [18] > 100 µM | [19] > 100 µM

O=c1c2c(-c3ccccc3)onc2n(-c2ccccc2)c(=O)n1-c1ccccc1
inactive: [1] 32.8 µM | [2] > 100 µM | [3] 17.5 µM | [4] > 100 µM | [5] > 100 µM | [6] 14.5 µM | [7] 17.9 µM | [8] 19.2 µM | [9] > 100 µM | [10] > 100 µM | [11] > 100 µM | [12] > 100 µM | [13] > 100 µM | [14] 16.9 µM | [15] > 100 µM | [16] 17.1 µM | [17] > 100 µM | [18] > 100 µM | [19] > 100 µM

C=CCCC1CCCCNC1=S (stereo not given)
inactive: [1] > 10 µM | [2] > 10 µM | [3] > 10 µM | [4] > 10 µM | [5] > 10 µM | [6] > 10 µM | [7] > 10 µM | [8] > 10 µM | [9] > 10 µM | [10] > 10 µM | [11] > 10 µM | [12] > 10 µM | [13] > 10 µM | [14] > 10 µM | [15] > 10 µM | [16] > 10 µM | [17] > 10 µM | [18] > 10 µM | [19] > 10 µM

COC(=O)c1cc(-c2c[nH]cc2C(=O)OCc2ccccc2)cn1S(=O)(=O)c1ccc(C)cc1
inactive: [1] > 100 µM | [2] > 100 µM | [3] > 100 µM | [4] > 100 µM | [5] > 100 µM | [6] > 100 µM | [7] > 100 µM | [8] 71.4 µM | [9] > 100 µM | [10] > 100 µM | [11] 22.4 µM | [12] > 100 µM | [13] 7.5 µM | [14] 66.7 µM | [15] > 100 µM | [16] > 100 µM | [17] > 100 µM | [18] > 100 µM | [19] > 100 µM

From ChEMBL document CHEMBL1201862, “PubChem BioAssay data set” (2004)
